{
  "source": "patent US20110117055A1",
  "about": "“Methods of Treating Hepatitis C Virus with Oxoacetamide Compounds” (priority 2009, published 2011)",
  "key": {"Jc1-luc virus": {"tested_on": "Jc1-luc virus", "experiment": "Synergy testing (Combination Index) in Jc1-luc system", "format": "cell-based, HCV genotype-2a", "procedure": "Luciferase compound activity assay. Cell culture and luciferase compound assays were performed as previously described. See Wyles et al., J. Virol. 2007, 81:3005-8; Wyles et al., Antimicrob Agents Chemother. 2009, 53:2660-2; Grünberger et al., J. Infect. Dis. 2008, 197:42-5; Wyles et al., Antimicrob Agents Chemother, 2008, 52:1862-4. Briefly, Huh7.5.1 cells were seeded into 96-well plates at a density of 10,000 cells per well in 100 μl medium. After incubating overnight for attachment, Jc1-luc virus at an MOI 0.01 was added to wells with or without compounds at the specified concentrations. All conditions were run in triplicate. After 24 hours, medium was aspirated and replaced with 100 μl of complete medium containing an identical concentration of compound(s) followed by additional 48 hour incubation. The luciferase assay (Bright-Glo; Promega) was carried out according to the manufacturer's instructions. Luciferase activity was determined using a microplate luminometer (Veritas microplate luminometer; Turner Biosystems). The relative light units (RLU) for each condition were reported as the mean±the standard error of the mean for the three wells.\nSynergy testing. The 50% effective concentration (EC50) of Compound 5 and other anti-HCV compounds was determined independently and used to set the range of concentrations for synergy experiments.\n(§1) Data analysis. Determinations of compound interactions were quantified based on the median-effect principle described by Chou and Talalay. Chou T., Talalay P., Adv. Enzyme. Regul., 1984, 22:27-55. Combination indices (CIs) were determined using Calcusyn (Biosoft) for each experiment at the EC50, EC75, and EC90 levels. Five replicates per condition were evaluated. A CI<0.9 was considered synergistic, a CI≧0.9 and ≦[…] was considered additive, and a CI>1.1 was deemed antagonistic."}, "HCV1a/2a chimeric virus": {"tested_on": "HCV1a/2a chimeric virus", "experiment": "HCV entry assay with HCV1a/2a chimeric virus", "format": "cell-based, HCV genotype 1a", "settings": "compared with HCV2a chimeric virus", "from_the_text": "Since HCV genotype 1 is the most prevalent genotype among the variants of HCV, we constructed an HCV1a/2a chimeric infectious clone with two cell-culture adaptive mutations introduced. Sequences for the structural proteins (including C, E1, and E2), p7, and NS2 were derived from HCV genotype 1a H77 strain. The rest of nonstructural proteins (NS3 to NS5B) and 3′ NTR were derived from HCV genotype 2a JFH strain. 5′NTR was originated from HCV2aJ6 (FIG. 7). […] Therefore, both HCV1a/2aCh virus and HCV1a/2aChLuc virus with Y361H and Q1251L mutations were successively produced in Huh7 cells and used for HCV entry assay."}, "HCV2a/2aChRluc virus": {"tested_on": "HCV2a/2aChRluc virus", "experiment": "Compound 5 with ribavirin or VX950 in the HCV2a/2aChRluc system", "format": "cell-based, HCV genotype 2a", "procedure": "100 μl of serially diluted compound solutions (100, 30, 10, 3, 1, 0.3, and 0.1 nM) was inoculated onto Huh-7 cells in a 96-well plate. Subsequently, 100 ul (TCID50, ˜0.6) of HCV2a/2aChRluc virus was added onto the cells. After co-incubation for 72 hrs, Renilla luciferase expression was determined (Renilla Luciferase Assay, Promega) and reported as relative light units (RLU).\nas §1"}, "[1]": {"tested_on": "HCV genotype 1b subgenomic replicon", "experiment": "HCV replicon assay (HCV1b replicon cells, NS5A ELISA)", "format": "cell-based", "settings": "3 days", "procedure": "Alternatively, Hut1b cells (Huh7 cells stably replicating HCV genotype 1b subgenomic replicon) were treated with serial dilutions of the test compound for 72 hours. Replication efficiency was monitored by ELISA assay using anti-HCV NS5A monoclonal antibody (Virogen).\nIncreasing amounts of compound were inoculated onto HCV1b replicon cells and incubated for 3 days. Following incubation, HCV replication was monitored with NS5A protein expression by ELISA."}, "SR-B1 pathway [2]": {"tested_on": "SR-B1 pathway", "settings": "human subjects; cited from earlier work"}, "[3]": {"experiment": "Cytotoxicity of anti-HCV compounds (CC50, Table 4)", "settings": "human, Huh7.5.1 cells"}, "HCV": {"tested_on": "HCV", "experiment": "Combination of viral entry inhibitor with IFN-α, HCVcc infection system, luciferase assay", "format": "cell-based", "settings": "Huh7 cells, 72 hrs", "procedure": "The current standard of care for the treatment of chronic hepatitis C is the combination of pegylated IFN-α (interferon-alpha) and ribavirin. […] Huh7 cells were incubated with various concentrations of Compound 1 or interferon alone, or combinations of both for 72 hrs, and the anti-HCV activity was measured by luciferase assays. The same was experiment was performed for Compound 5."}, "SR-B1 pathway [4]": {"tested_on": "SR-B1 pathway", "settings": "cited from earlier work"}, "[5]": {"tested_on": "HCV2aCh (E2:G451R) mutant virus", "experiment": "E2:G451R mutant virus, immuno-fluorescence read-out", "format": "cell-based, HCV genotype 2a", "procedure": "IF analysis: Following aspiration of supernatant from a 24-well plate, 1 ml of ice cold methanol was added to each well and the plate was stored overnight at −20° C. The following day, methanol was removed and the plates were air-dried at room temperature for about 30 minutes. The plate was then rinsed/rehydrated with two washes of PBS (˜5 minutes/wash). To block non-specific antibody binding, cells were incubated in blocking buffer (1% BSA, 0.2% skim milk in PBS) for 1 hour at room temperature. Primary antibody (mouse anti-HCV Core; Affinity BioReagents, MA1-080) was diluted 1:1000 in PBS+0.1% Tween-20 and incubated overnight at 4° C. on rocker (˜200 μl of antibody/well). The next day, wells were washed with PBS (three washes of 5 minutes each) and then incubated for 30 minutes at room temperature with a secondary antibody: goat anti-mouse_AlexaFluor488 (1:1000 dilution in PBS/Tween; Molecular Probes/Invitrogen #A11001). The cells were then washed with PBS three times (5 minutes each), including once with Hoechst dye (0.4 ug/ml; Molecular Probes/Invitrogen #H3570) to counterstain the nuclei of cells. Immunofluorescence staining was analyzed using 10× objective on a Zeiss fluorescent microscope."}},
  "note": "Entries after “also recorded” stand apart in the source; their conditions may differ. Like-named read-outs stand apart in the source and are kept apart here.",
  "data": [
    {"smiles": "COc1c(NC(=O)C(=O)c2ccc(OCCN3CCOCC3)c3ccccc23)cc(C(C)(C)C)cc1NS(C)(=O)=O", "note": "[Compound 5, N-(5-tert-butyl-2-methoxy-3-(methylsulfonamido)phenyl)-2-(4-(2-morpholinoethoxy)naphthalen-1-yl)-2-oxoacetamide]", "values": [
      {"measurement": "antagonism with any compound studied", "setting": "Jc1-luc virus", "value": "not antagonistic"},
      {"measurement": "Combination Index (CI) with 2′-C-methyladenosine", "setting": "Jc1-luc virus; at 50% effective dose (ED50)", "value": 1.09},
      {"measurement": "Combination Index (CI) with BILN2061", "setting": "Jc1-luc virus; at 50% effective dose (ED50)", "value": 0.98},
      {"measurement": "Combination Index (CI) with interferon-alpha", "setting": "Jc1-luc virus; at 50% effective dose (ED50)", "value": 1.00},
      {"measurement": "interaction with VX1", "setting": "Jc1-luc virus; at ED50, ED75 and ED90", "value": "consistent synergy"},
      {"measurement": "interaction with all compounds tested", "setting": "Jc1-luc virus; at ED75 and ED90", "value": "synergy"},
      {"measurement": "inhibition of HCV1a chimeric virus", "setting": "HCV1a/2a chimeric virus", "value": "inhibited"},
      {"measurement": "interaction with VX-950", "setting": "HCV2a/2aChRluc virus; HCV2a/2aCHRLuc system", "value": "consistent synergy"},
      {"measurement": "effect of combination with ribavirin", "setting": "HCV2a/2aChRluc virus; ribavirin 15 μM", "value": "no antagonistic effect"},
      {"measurement": "effect on HCV replication (NS5A protein expression by ELISA)", "setting": "[1]", "value": "did not measurably inhibit; also recorded: no measurable effect"},
      {"measurement": "HDL levels", "setting": "SR-B1 pathway [2]", "value": "raised HDL levels"},
      {"measurement": "CC50", "setting": "[3]", "value": "> 100", "unit": "µM"},
      {"measurement": "effect of combination with IFN-α on inhibition of HCV infection in cell culture", "setting": "HCV", "value": "additive to moderate synergistic effect"},
      {"measurement": "HDL levels", "setting": "SR-B1 pathway [4]; mice with a knock-out in the SR-B1 gene", "value": "not"},
      {"measurement": "HDL levels", "setting": "SR-B1 pathway [4]; mice", "value": "raised HDL levels"},
      {"measurement": "sensitivity of E2 mutant relative to wild-type virus, immuno-fluorescence", "setting": "[5]", "value": "more resistant"}
    ]}
  ]
}
